Measured values from US20240150335A1, “FUSED RING DERIVATIVES CONTAINING 1,4-OXAZEPANE” (MEDSHINE DISCOVERY INC., priority 2021, published 2024).

Assays:
[1] = target: Recombinant human cathepsin C/DPP1; test: Inhibition effect test of DPP1 enzyme activity; assay type: biochemical; details: recombinant human cathepsin C/DPP1, Gly-Arg-AMC substrate 12.5 μM, 25° C. 60 minutes; read-out: IC50, inhibitory activity on DPP1 enzyme
Method: Experimental Example 1: Inhibition Effect Test of DPP1 Enzyme Activity
Recombinant human cathepsin C/DPP1 was purchased from R&D Systems;
Recombinant human cathepsin L (rhCathepsin L) was purchased from R&D Systems;
Gly-Arg-AMC (hydrochloride) was purchased from CAYMAN CHEMICAL COMPANY.
1× activation buffer: 5 mM DTT 0.01% (V/V) Triton X-100 (preparation for current use);
1× assay buffer: 50 mM NaCl 5 mM DTT 0.01% (V/V) Triton X-100 (preparation for current use);
1× activation buffer was used to dilute recombinant human cathepsin C/DPP1 enzyme and recombinant human cathepsin L (rhCathepsin L) enzyme to concentrations of 2 ng/μL and 0.4 ng/μL, respectively; equal volume of two working solutions of enzyme was taken, mixed well and incubated at 25° C. for 60 minutes;
the compounds to be tested were 5-fold diluted with a multi-channel pipette to the 8th concentration, i.e., diluted from 1 mM to 12.8 nM. Then 1× experimental buffer was used to dilute each compound to be tested by gradient into a 4% DMSO working solution. The working solution was added to corresponding wells for 5 μL/well, and duplicate experiment was set. The mixture was centrifuged at 1000 rpm for 1 minute;
5 μL/well of the enzyme mixture after incubation was taken and added to the white microwell plate. At this time, the amount of DPP1 enzyme in each well was 5 ng; 1× experimental buffer in 5 μL/well was added to the blank control well;
Gly-Arg-AMC (hydrochloride) was diluted to 25 μM with 1× assay buffer. The diluted mixture in 10 μL/well was added to a white microwell plate. The substrate concentration was 12.5 μM at this time, and the microplate was centrifuged in a centrifuge at 1000 rpm for 1 minute. […] After centrifugation, the microplate was covered with membrane and incubated at 25° C. for 60 minutes;
after incubation, fluorescence detection was performed using a multi-label analyzer with an excitation wavelength of 360 nm and an emission wavelength of 460 nm.
Using the equation (Sample−Min)/(Max−Min)×100% to convert the raw data into enzyme activity, the IC50 value might be obtained by curve fitting with four parameters (obtained by “log (inhibitor) vs. response—Variable slope” mode in GraphPad Prism).
Max: Contains recombinant human cathepsin C/DPP1, recombinant human cathepsin L (rhCathepsin L), and Gly-Arg-AMC (hydrochloride)
Min: No recombinant human cathepsin C/DPP1 and recombinant human cathepsin L (rhCathepsin L)

[2] = Pharmacokinetic evaluation in SD rats; assay type: in vivo; details: oral administration 10.0 mg/kg
Method: Experimental Example 4: Pharmacokinetic Evaluation of the Compound of the Present Disclosure in Rats
Experimental purpose: To test the pharmacokinetics of the compound in SD rats in vivo
Experimental materials: SD rats (male, 200 to 300 g, 6 to 10 weeks old, Beijing Vital River)
The pharmacokinetic characteristics of the compound in rodents after intravenous injection and oral administration were tested according to the standard protocol. In the experiment, the candidate compound was formulated into clear solutions, and a single intravenous injection and oral administration were respectively given to two rats. The vehicle of intravenous injection and oral administration is 5:95 DMSO and 10% hydroxypropyl β-cyclodextrin aqueous solution. The whole blood samples within 24 hours were collected in commercial EDTA2K anticoagulant tubes. The tubes were centrifuged at 6000 g for 3 minutes. The supernatant was separated to obtain plasma samples. 20 times the volume of acetonitrile solution containing internal standard was added to precipitate protein. The mixture was centrifuged. The supernatant was take out. An equal volume of water was added. Then the mixture was centrifuged to take the supernatant as the sample for sampling. Plasma concentration was quantitatively analyzed by LC-MS/MS analysis method, and pharmacokinetic parameters were calculated, such as apparent volume of distribution, clearance rate, half-life, area under the drug-time curve.

[3] = Mouse tissue (bone marrow) distribution; assay type: in vivo; details: CD-1 mice
Method: Experimental Example 5: Evaluation of Mouse Tissue (Bone Marrow) Distribution of the Compound of the Present Disclosure
Experimental purpose: To test the distribution of the compound of the present disclosure in the bone marrow and plasma of CD-1 mice
Experimental materials: CD-1 mice (male, 20 to 40 g, 4 to 6 weeks old, Beijing Vital River)
The content of the compound in the bone marrow and plasma of mice after oral administration was tested according to the standard protocol. In the experiment, the candidate compound was formulated into a clear solution. The vehicle was 5:95 DMSO and 10% hydroxypropyl β-cyclodextrin aqueous solution. A dose of 5 mg/kg was given to mice as a single oral administration. The whole blood samples and bone marrow samples were collected at 0.25, 0.5, 1, 2, 4, 6, and 24 hours, respectively. The whole blood samples were collected in commercial EDTA2K anticoagulant tubes. The tubes were centrifuged at 6000 g for 3 minutes. The supernatant was separated to obtain plasma samples. The acetonitrile solution containing internal standard was added to precipitate protein. The mixture was centrifuged. The supernatant was take out. An equal volume of water was added. After mixing well, plasma concentration was quantitatively analyzed by LC-MS/MS analysis method, and the area under the drug-time curve was calculated. The femur and tibia on both sides of the mice were taken, and the muscle was removed. One end was cut off, placed in a centrifuge tube with the open end downwards. The tubes were centrifuged at 8000 rpm for 1 minute. The precipitate was bone marrow. The bone marrow was mixed with 50% methanol-water, grinded into a homogenate. The homogenate was added with an acetonitrile solution containing an internal standard to precipitate protein. The mixture was centrifuged to take the supernatant, added with an equal volume of water. After mixing well, the drug concentration in bone marrow was quantitatively analyzed by LC-MS/MS analysis method, and the area under the drug-time curve was calculated.
The calculation formula of bone marrow/plasma distribution coefficient is: Bone marrow/Plasma Ratio=bone marrow AUC0-last/plasma AUC0-last.

[4] = plasma, intravenous injection 2.0 mg/kg
[5] = bone marrow, 5 mg/kg single oral administration

Compound: Cn1ncc2ccc(-c3ccc(C[C@@H](C#N)NC(=O)[C@@H]4CNCCCO4)c(F)c3)cc21 [Compound 8]
- IC50 [1]: 3.57 nM
- Bioavailability F ([2]; intravenous injection 2.0 mg/kg): 39.1%
- Clearance rate CL [2, 4]: 13.1 mL/min/kg
- Volume of distribution at steady state Vdss [2, 4]: 1.9 L/kg
- Cmax ([2]; plasma, intravenous injection 2.0 mg/kg, read-out: Peak concentration Cmax): 2240 nM
- Area under drug-time curve AUC0-∞ PO ([2]; plasma): 11.864 µM·h
- Half life T1/2 (PO) ([2]; plasma): 3.2 h
- Bone marrow/plasma distribution coefficient ([3]; 5 mg/kg oral, bone marrow AUC0-last/plasma AUC0-last): 4.5
- Bone marrow Area under drug-time curve AUC0-last PO [3, 5]: 82362 nmol·h/kg
- Bone marrow Peak concentration Cmax [3, 5]: 6113 nmol/kg
- Plasma Area under drug-time curve AUC0-last PO ([3]; plasma, 5 mg/kg single oral administration): 18.362 µM·h
- Cmax ([3]; plasma, 5 mg/kg single oral administration, read-out: Plasma Peak concentration Cmax): 2300 nM
